Where two headings read alike, the source gives them in different places.

The results in this text go back to patent US6376175B1, “Methods of discovering chemicals capable of functioning as gene expression modulators” (OSI Pharmaceuticals, Inc., priority 1989, dated 2002).

One experiment deals with GM-CSF promoter. Put plainly: GM-CSF promoter-luciferase induction by known inducers, clones GM 1073, GM 1088, GM 1105. The format is cell-based, human. To be noted: for luciferase expression induction, clone 1088: GM-CSF reporter clone GM 1088; for luciferase expression induction, clone 1105: GM-CSF reporter clone GM 1105. How it is done: All routine subcloning procedures were performed as described by Maniatis et al. (1982), (28) unless otherwise noted. The about 0.7 kb HindIII/RsaI fragment of the GM-CSF clone (FIG. 20) was inserted into pUC 18 previously digested with HindIII/HincII. The about 0.7 kb HindIII/SmaI fragment was then isolated from the resulting vector and cloned into pUV 100 digested previously with HindIII/SnaBI, thereby generating pGMLUCI (FIG. 22.) In order to correctly fuse the GM-CSF ATG with the coding region of luciferase, four oligonucleotides (FIG. 21) were synthesized, phosphorylated, annealed, ligated, and inserted into pUC19 previously digested with Eco RI/XbaI, generating pGM-1 (FIG. 22). pGM-1 was then sequences (Sequenase Kit, US Biochemicals, Cleveland, Ohio) using the M13 forward (U.S. Biochem.) and reverse primers (Pharmacia, Piscataway, N.J.) to ensure that there were no mutations in the synthesized oligonucleotides. The about 1.8 kb BstEII/ScaI fragment from pGM-1 was then isolated and ligated to about 1.5 kb BstEII/ScaI fragment from pGMLUCI to generate pGM-2 (FIG. 22). pGM-2 was then digested with Hind III/XbaI and about 0.7 kb fragment was cloned into pUV 102 and pUV 103 previously digested with HindIII/XbaI. This generated pGMLS102 and pGMLS103 (FIG. 22), which contain 663 bp of GM-CSF sequence 5′ of the ATG fused directly to the second (correct) ATG of luciferase and the rest of the luciferase coding region. An additional about 1.4 kb of upstream sequences were cloned into this construct by isolating the about 1.4 kb SalI/HindIII fragment from the GM-CSF clone (FIG. 20), blunting the SalI end by filling in with Klenow polymerase, and inserting the fragment into pGMLS102 and pGMSL103 previously digested with HindIII/SnaBI. This step generated pGMLL102 and PGMLL103, respectively (FIG. 23). Finally, the pTKNEO2 and PTKNEO3 about 1.8 kb SfiI fragments were cloned directly into the SfiI site of pGMLL103 to generated pGMLL103 NEO2 and pGMLL103 NEO3.
6 clones generated by electroporation with pGMLL103 NEO3 (FIG. 23; Materials and Methods, section D.2) were subjected to further analysis as described above: GM 1073 (10 ug; circular); GM 1081, 1088 and 1090 (5 ug; linear); and GM 1098 and 1105 (10 ug; linear).
Promoter induction experiments were also conducted with the GM-CSF reporter cell lines GM 1073, GM 1088 and GM 1105, which were all shown to contain correctly inserted constructs (see above). […] Luciferase expression of clones 1088 and 1105 was induced by PMA 2.8 fold and 2 fold, respectively, while TNF-alpha induced both clones 2 fold.

Another experiment has as its system human G-CSF promoter. The format is cell-based. As to conditions: 7-hour incubation, serum-free media. An excerpt: A human bladder carcinoma cell line (U5637, ATCC number HTB 9) was used for transfection of plasmids containing the human Granulocyte-Colony Stimulating Factor (G-CSF) promoter (see below) and was maintained in RPMI medium supplemented with 10% FCS. For HTP screening, transfected 5637 clones were transferred to a serum free defined medium identical to that used for the NIH/3T3 clones.
The sequences of OL-1, OL-2 and OL-5 recognize the G-CSF promoter region, OL-4 recognizes the first intron/exon junction and OL-3 recognizes sequences within the second exon (32). One of the clones isolated from the leukocyte library using these oligonucleotide probes contains a 3.5 kb SalI-BamHI fragment of G-CSF genomic sequence consisting of 3.3 kb of promoter sequence and two hundred base pairs of the coding region. This fragment was inserted into the vector pGEM-7-Zf (Promega, Madison, Wis.) which had previously been digested with SalI/BamHI, resulting in the vector pJM710 (FIG. 7). pJM710 was then digested with PstI, and the resulting 1.6 kb fragment containing G-CSF upstream sequences and the first 15 bases of the G-CSF leader sequence was inserted into the PstI site of pGEM5-Luci (FIG. 8) to generate pG-Lucl (FIG. 9). This construct was then used for transfection of 5637 human bladder carcinoma cells as described below in section E3. pGEM5-Luci (FIG. 8) had previously been constructed by inserting the […]/SalI fragment from pSVLuci (FIG. 2) containing the luciferase coding sequence and the SV40 late polyadenylation signal into pGEM 5-Zf (Promega, Madison Wis.) digested with XhoI/SalI.
pG-LUC1 (FIG. 9) and pRSVNeo were co-transfected into 5637 human bladder carcinoma cells as described above. Selection of G418 resistant clones was as described above except for using a concentration of 0.1 mg/ml G418. Analysis of cell clones was performed as above except that a known inducer of G-CSF expression (1-5 µg/ml lipopolysaccharide (LPS), E. coli serotype 055:b5, Difco, Detroit, Mich. or Sigma, St. Louis, Mo.) was used in place of dexamethasone.
Cell plating: Dynatech Microlite 96 well plates were custom pretreated for cell attachment by Dynatech Laboratories, Inc. (Chantilly, Va.). Alternatively, the 96 well plates were treated with 50 µl per well of human fibronectin (hFN, 15 µg/ml in PBS, Collaborative Research, Bedford, Mass.) overnight at 37 C. hFN-treated plates were washed with PBS using an Ultrawash 2 Microplate Washer (Dynatech Labs), to remove excess hFN prior to cell plating. M10, 532, and G21 cells maintained in their respective serum media (with 0.2 mg/ml G418) were washed with PBS, harvested by trypsinization, and counted using a hemocytometer and the Trypan Blue exclusion method according to protocols provided by Sigma, St. Louis, Mo. Chemical Company. Cells were then diluted into serum free defined media (with 0.2 mg/ml G418), and 0.2 ml of cell suspension per well was plated onto Dynatech treated plates (532 and G21) or hFN-treated plates (M10) using a Cetus Pro/Pette (Cetus, Emeryville Calif.). Plates were incubated overnight at 37 C in a humidified 5% CO2 atmosphere.
Addition of Chemicals to Cells: Chemicals from the Oncogene Science file were dissolved in DMSO at concentrations of 3-30 mg/ml. A liquid handling laboratory work station (RSP 5052, Tecan U.S. Chapel Hill, N.C.) was used to dilute the chemicals (three dilutions; 5 fold, 110 fold, and 726 fold). 10 11 of each dilution were added to each of quadruplicate samples of cells contained in the wells of 96-well Dyantech Microlite Plates. […]

Turning to `CCCCCCCCCCCCCC(=O)O[C@@H]1[C@@H](C)[C@@]2(O)[C@@H](C=C(CO)C[C@]3(O)C(=O)C(C)=C[C@@H]23)[C@@H]2C(C)(C)[C@]12OC(C)=O` [PMA, phorbo-myristate-acetate, reference compound], the “GM-CSF promoter induction, GM 1073 cells” value with GM-CSF promoter (10.5 hours, 20 ng/ml PMA, serum-containing media) amounted to 3.4 fold; in the experiment with GM-CSF promoter (PMA, serum-free media), 7.5 fold. Also, the “luciferase expression induction, clone 1088” value in the experiment with GM-CSF promoter worked out at 2.8 fold. Also, the “luciferase expression induction, clone 1105” value with GM-CSF promoter is 2 fold. Besides, the entries for the “increase of luciferase expression directed by the G-CSF promoter, G 21 cells” value (shortened to “increase”) in the experiment with human G-CSF promoter (absence of EGF) and with human G-CSF promoter (presence of EGF) were 34.6 fold and 24.6 fold, respectively.

In the case of TNF-alpha, in the experiment on GM-CSF promoter, the “luciferase expression induction, clone 1088” value stood at 2 fold and the “luciferase expression induction, clone 1105” value came out at 2 fold. Also, in the experiment with human G-CSF promoter (absence of EGF), the “increase” value is reported as 2.1 fold. Besides, in the experiment with human G-CSF promoter (presence of EGF), the “increase” value was determined as 2.8 fold.
